{
  "source": "patent US20230330093A1",
  "about": "“APPLICATION OF NITROGEN-CONTAINING SATURATED HETEROCYCLIC COMPOUND” (SHANGHAI PHARMACEUTICALS HOLDING CO., LTD., priority 2020, published 2023)",
  "type_in_all_cases": "in vivo, Macaca mulatta (Rhesus Macaque)",
  "key": {"[1]": {"system": "rhesus monkeys with spontaneous chronic kidney disease (CKD)", "assay": "Effect on UACR (proteinuria), 8-week oral administration", "details": "for MALB: Valsartan group 2.67 mg/kg/time oral (qd wk 1-2, bid wk 3-8); for MALB / UACR change rate / UACR: per animal + Mean ± SD; for UACR change rate: 8 weeks vs baseline, negative = decrease", "procedure": "CKD-EPI rating […]-G3b, glomerular filtration rate eGFR: 30 59 ml/min/1.73 m^2; or moderate to severe increase in proteinuria (A2-A3): urine albumin/creatinine ratio (UACR)>15 mg/g-350 mg/g (4-6 hour urine collection), vs. age-matched control group 3±2 mg/g. In the trial, animals were brought in three stages. […] ELISA kit was used for NT-proBNP test. [table]"}, "[2]": {"system": "rhesus monkeys with spontaneous chronic kidney disease", "assay": "Effect on glomerular filtration rate eGFRcreat-cys, 8-week administration", "details": "for eGFRcreat-cys / eGFRcreat-cys Change value (8 weeks): Valsartan group (n = 3); for eGFRcreat-cys Change value (8 weeks): 8 weeks − Baseline", "procedure": "CKD-EPI rating […]-G3b, glomerular filtration rate eGFR: 30 59 ml/min/1.73 m^2; or moderate to severe increase in proteinuria (A2-A3): urine albumin/creatinine ratio (UACR)>15 mg/g-350 mg/g (4-6 hour urine collection), vs. age-matched control group 3±2 mg/g. In the trial, animals were brought in three stages. […] Glomerular filtration rate […]: creatinine (Cr-P), urea nitrogen (BUN) and cystatin (CysC) were detected, and the eGFR value was obtained by calculation. It was performed once before the administration and once every two weeks after the administration. […] ELISA kit was used for NT-proBNP test. [table] Selected […] in each group: 30 59 ml/min/1.73 m^2. The changes in the glomerular filtration rate of W8 and baseline were analyzed."}, "[3]": {"system": "rhesus monkeys with spontaneous chronic kidney disease", "assay": "Effect on cystatin C (CysC), 8-week administration", "details": "Valsartan group (n = 3)", "procedure": "(§1) In the trial, animals were brought in three stages. […] Glomerular filtration rate […]: creatinine (Cr-P), urea nitrogen (BUN) and cystatin (CysC) were detected, and the eGFR value was obtained by calculation. It was performed once before the administration and once every two weeks after the administration. […] ELISA kit was used for NT-proBNP test. [table]"}, "[4]": {"system": "rhesus monkeys with spontaneous chronic kidney disease", "assay": "Effect on BUN, 8-week administration", "details": "Valsartan group (n = 3)", "procedure": "as §1"}, "[5]": {"system": "rhesus monkeys with spontaneous chronic kidney disease", "assay": "Effect on NT-proBNP (ELISA), 8-week administration", "details": "Valsartan group (n = 3)", "excerpt": "In the trial, animals were brought in three stages. […] ELISA kit was used for NT-proBNP test. [table]"}, "[6]": {"details": "Baseline, single animals and Mean ± SD"}, "[7]": {"details": "Baseline, single animals and Mean ± SD, mean"}},
  "note": "Values joined by “and” are separate entries in the source; they are usually repeats but may differ in a detail not shown here. Equal entries are not always repeated. “Also recorded” adds a separate entry of the source.",
  "data": [
    {"smiles": "CCCCC(=O)N(Cc1ccc(-c2ccccc2-c2nnn[nH]2)cc1)[C@H](C(=O)O)C(C)C", "note": "[Valsartan, reference compound]", "values": [
      {"measurement": "MALB", "setting": "[1]; 8 weeks", "value": "6.2 mg/L and 39.9 mg/L and 19.5 mg/L"},
      {"measurement": "MALB", "setting": "[1]; 8 weeks, mean", "value": "21.9 ± 17.0", "unit": "mg/L"},
      {"measurement": "MALB", "setting": "[1]; Baseline", "value": "7.1 mg/L and 60.0 mg/L and 25.8 mg/L"},
      {"measurement": "MALB", "setting": "[1]; Baseline, mean", "value": "31.0 ± 26.8", "unit": "mg/L"},
      {"measurement": "UACR change rate", "setting": "[1]; Valsartan group 2.67 mg/kg/time oral", "value": "-41.10% and -69.59% and 35.88%"},
      {"measurement": "UACR change rate", "setting": "[1]; Valsartan group 2.67 mg/kg/time oral, mean", "value": "−24.93 ± 54.56", "unit": "%"},
      {"measurement": "UACR Benefit assessment", "setting": "[1]; Valsartan group 2.67 mg/kg/time oral, 8 weeks, per animal", "value": "both showed benefit; also recorded: the benefit was not obvious"},
      {"measurement": "UACR", "setting": "[1]; Valsartan group 2.67 mg/kg/time oral, 8 weeks", "value": "22.0 mg/g and 19.3 mg/g and 20.4 mg/g"},
      {"measurement": "UACR", "setting": "[1]; Valsartan group 2.67 mg/kg/time oral, 8 weeks, mean", "value": "20.6 ± 1.3", "unit": "mg/g"},
      {"measurement": "UACR", "setting": "[1]; Valsartan group 2.67 mg/kg/time oral, Baseline", "value": "15 mg/g and 37.3 mg/g and 63.6 mg/g and 15.0 mg/g and 38.7 ± 24.3 mg/g"},
      {"measurement": "UACR of W8 decreased by, compared with the baseline", "setting": "[1]; Valsartan group, 2 animals (No. 2091, No. 4861)", "value": "40%-70%"},
      {"measurement": "W8 UACR after administration", "setting": "[1]; Valsartan group, one animal with baseline UACR 15 mg/g", "value": 20.4, "unit": "%"},
      {"measurement": "eGFRcreat-cy, Change value", "setting": "[2]; Valsartan group 2.67 mg/kg/time oral (qd wk 1-2, bid wk 3-8), Baseline, per animal + Mean ± SD", "value": 0, "unit": "ml/min/1.73 m^2"},
      {"measurement": "eGFRcreat-cy, Change value", "setting": "[2]; Valsartan group 2.67 mg/kg/time oral (qd wk 1-2, bid wk 3-8), Baseline, per animal + Mean ± SD, mean", "value": "0 ± 0", "unit": "ml/min/1.73 m^2"},
      {"measurement": "eGFRcreat-cy, Change value", "setting": "[2]; Valsartan group 2.67 mg/kg/time oral, 2 weeks vs baseline, per animal + Mean ± SD", "value": "4 ml/min/1.73 m^2 (2×) and 6 ml/min/1.73 m^2"},
      {"measurement": "eGFRcreat-cy, Change value", "setting": "[2]; Valsartan group 2.67 mg/kg/time oral, 2 weeks vs baseline, per animal + Mean ± SD, mean", "value": "5 ± 1", "unit": "ml/min/1.73 m^2"},
      {"measurement": "eGFRcreat-cy, Change value", "setting": "[2]; Valsartan group 2.67 mg/kg/time oral, 4 weeks vs baseline, per animal + Mean ± SD", "value": "1 ml/min/1.73 m^2 and 7 ml/min/1.73 m^2 and 6 ml/min/1.73 m^2"},
      {"measurement": "eGFRcreat-cy, Change value", "setting": "[2]; Valsartan group 2.67 mg/kg/time oral, 4 weeks vs baseline, per animal + Mean ± SD, mean", "value": "5 ± 3", "unit": "ml/min/1.73 m^2"},
      {"measurement": "eGFRcreat-cy, Change value", "setting": "[2]; Valsartan group 2.67 mg/kg/time oral, 6 weeks vs baseline, per animal + Mean ± SD", "value": "1 ml/min/1.73 m^2 and 5 ml/min/1.73 m^2 and 7 ml/min/1.73 m^2"},
      {"measurement": "eGFRcreat-cy, Change value", "setting": "[2]; Valsartan group 2.67 mg/kg/time oral, 6 weeks vs baseline, per animal + Mean ± SD, mean", "value": "4 ± 3", "unit": "ml/min/1.73 m^2"},
      {"measurement": "eGFRcreat-cy, Change value", "setting": "[2]; Valsartan group 2.67 mg/kg/time oral, 8 weeks vs baseline, per animal + Mean ± SD (p<0.01 vs placebo)", "value": "6±2 ml/min/1.73 m^2 and 5 ml/min/1.73 m^2 and 8 ml/min/1.73 m^2"},
      {"measurement": "eGFRcreat-cys", "setting": "[2]; 2 weeks", "value": "58 ml/min/1.73 m^2 and 54 ml/min/1.73 m^2 and 46 ml/min/1.73 m^2"},
      {"measurement": "eGFRcreat-cys", "setting": "[2]; 2 weeks, group mean", "value": "53 ± 6", "unit": "ml/min/1.73 m^2"},
      {"measurement": "eGFRcreat-cys", "setting": "[2]; 4 weeks", "value": "55 ml/min/1.73 m^2 and 57 ml/min/1.73 m^2 and 46 ml/min/1.73 m^2"},
      {"measurement": "eGFRcreat-cys", "setting": "[2]; 4 weeks, group mean", "value": "53 ± 6", "unit": "ml/min/1.73 m^2"},
      {"measurement": "eGFRcreat-cys", "setting": "[2]; 6 weeks", "value": "55 ml/min/1.73 m^2 and 47 ml/min/1.73 m^2"},
      {"measurement": "eGFRcreat-cys", "setting": "[2]; 6 weeks, group mean", "value": "53 ± 5", "unit": "ml/min/1.73 m^2"},
      {"measurement": "eGFRcreat-cys", "setting": "[2]; 8 weeks", "value": "60 ml/min/1.73 m^2 and 59 ml/min/1.73 m^2 and 46 ml/min/1.73 m^2"},
      {"measurement": "eGFRcreat-cys Change value (8 weeks)", "setting": "[2]", "value": "5 ml/min/1.73 m^2 and 8 ml/min/1.73 m^2"},
      {"measurement": "eGFRcreat-cys Change value (8 weeks)", "setting": "[2]; group mean", "value": "6 ± 2", "unit": "ml/min/1.73 m^2"},
      {"measurement": "eGFRcreat-cys", "setting": "[2]; 8 weeks, group mean", "value": "55 ± 8", "unit": "ml/min/1.73 m^2"},
      {"measurement": "eGFRcreat-cys", "setting": "[2]; [6]", "value": "55 ml/min/1.73 m^2 and 50 ml/min/1.73 m^2 and 40 ml/min/1.73 m^2"},
      {"measurement": "eGFRcreat-cys", "setting": "[2]; Baseline, single animals and Mean ± SD, group mean", "value": "48 ± 7", "unit": "ml/min/1.73 m^2"},
      {"measurement": "CysC", "setting": "[3]; 2 weeks", "value": "1.44 mg/L and 1.62 mg/L and 1.76 mg/L"},
      {"measurement": "CysC", "setting": "[3]; 2 weeks, mean", "value": "1.61 ± 0.16", "unit": "mg/L"},
      {"measurement": "CysC", "setting": "[3]; 4 weeks", "value": "1.47 mg/L and 1.65 mg/L and 1.74 mg/L"},
      {"measurement": "CysC", "setting": "[3]; 4 weeks, mean", "value": "1.62 ± 0.14", "unit": "mg/L"},
      {"measurement": "CysC", "setting": "[3]; 6 weeks", "value": "1.58 mg/L and 1.69 mg/L"},
      {"measurement": "CysC", "setting": "[3]; 6 weeks, mean", "value": "1.62 ± 0.06", "unit": "mg/L"},
      {"measurement": "CysC", "setting": "[3]; 8 weeks", "value": "1.59 mg/L and 1.64 mg/L and 1.63 mg/L"},
      {"measurement": "CysC", "setting": "[3]; 8 weeks, mean", "value": "1.62 ± 0.03", "unit": "mg/L"},
      {"measurement": "CysC", "setting": "[3]; [6]", "value": "1.66 mg/L and 1.68 mg/L and 1.73 mg/L"},
      {"measurement": "CysC", "setting": "[3]; [7]", "value": "1.69 ± 0.04", "unit": "mg/L"},
      {"measurement": "BUN", "setting": "[4]; 4 weeks", "value": "22.2 mg/dL and 29.1 mg/dL and 33.4 mg/dL"},
      {"measurement": "BUN", "setting": "[4]; 4 weeks, mean", "value": "28.2 ± 5.7", "unit": "mg/dL"},
      {"measurement": "BUN", "setting": "[4]; 8 weeks", "value": "19.5 mg/dL and 33.4 mg/dL and 26.0 mg/dL"},
      {"measurement": "BUN", "setting": "[4]; 8 weeks, mean", "value": "26.3 ± 7.0", "unit": "mg/dL"},
      {"measurement": "BUN", "setting": "[4]; Baseline2, single animals and Mean ± SD", "value": "19.0 mg/dL and 25.4 mg/dL and 31.2 mg/dL"},
      {"measurement": "BUN", "setting": "[4]; Baseline2, single animals and Mean ± SD, mean", "value": "25.2 ± 6.1", "unit": "mg/dL"},
      {"measurement": "NT-proBNP", "setting": "[5]; 4 weeks", "value": "179 pg/mL and 260 pg/mL and 285 pg/mL"},
      {"measurement": "NT-proBNP", "setting": "[5]; 4 weeks, mean", "value": "241 ± 56", "unit": "pg/mL"},
      {"measurement": "NT-proBNP", "setting": "[5]; 8 weeks", "value": "217 pg/mL and 288 pg/mL and 291 pg/mL"},
      {"measurement": "NT-proBNP", "setting": "[5]; 8 weeks, mean", "value": "266 ± 42", "unit": "pg/mL"},
      {"measurement": "NT-proBNP", "setting": "[5]; [6]", "value": "211 pg/mL and 500 pg/mL and 394 pg/mL"},
      {"measurement": "NT-proBNP", "setting": "[5]; [7]", "value": "368 ± 146", "unit": "pg/mL"}
    ]}
  ]
}
